“And” between values parts separate entries of the source, which are not always exact repeats. Identical values can stand only once.
How the values were obtained:
blood uric acid = assay: Improvement in hyperuricemia: blood uric acid level in patients given troglitazone; format: in vivo, human
Protocol: The level of uric acid in the blood of a patient may be measured in a conventional manner. Specifically, blood is collected before and after the administration, for a predetermined period, of a medicament to a patient suffering from hyperuricemia and then the blood uric acid level is measured, for example, by the uricase catalase method [Kageyama: Clin. Chim. Acta., 31, 421-426 (1971)]. A measuring kit employing the above method is commercially available (“Uricolor 400”, trade name; product of Ono Pharmaceutical Co., Ltd.)
4 adult human patients who had suffered from diabetes and hyperuricemia and whose blood uric acid level was not less than 7.0 mg/dl, were administered orally 200 mg of troglitazone twice a day (in the morning and in the evening). This administration was continued for 4 weeks. Both after and before administration, blood was collected and the blood uric acid level was measured.

ddY mice (male) = format: in vivo; details: 300 mg/kg orally, three male ddY mice, observed for 5 days
Protocol: The acute toxicity of troglitazone was measured in a conventional manner. Specifically, 300 mg/kg of troglitazone was administered orally to three ddY mice (male), which were then observed for 5 days.

uric acid = details: clinical examination values, Rinsho Iyaku 9, Suppl.3, 14 (1993), cited from earlier work

Question: Which results are given for Cc1c(C)c2c(c(C)c1O)CCC(C)(COc1ccc(CC3SC(=O)NC3=O)cc1)O2 (stereo not drawn) [troglitazone, 5-[4-(6-hydroxy-2,5,7,8-tetramethylchroman-2-ylmethoxy)benzyl]thiazolidine-2,4-dione]?
Answer: Blood uric acid level, Week 4 (blood uric acid; adult human patients with diabetes and hyperuricemia, 200 mg orally twice a day for 4 weeks): 5.2 mg/dL and 5.3 mg/dL and 5.6 mg/dL; Blood uric acid level, Week 0 (blood uric acid; adult human patients with diabetes and hyperuricemia, before administration (baseline)): 7.2 mg/dL and 7.6 mg/dL and 7.9 mg/dL; blood uric acid level after administration (summary of the Table) (blood uric acid; patients with blood uric acid 7.0 mg/dl or greater, 200 mg orally twice a day, 4 weeks, normal range): ≤ 6.0 mg/dL; survival (acute toxicity) (ddY mice (male)): All of them survived; uric acid level before administration (uric acid; baseline): 4.7±1.7; uric acid level after administration (uric acid): 4.4±1.4
